Laboratory results as given in patent US11254907B2, “Fungal volatile organic compound enhances plant s growth characteristics” (The United States of America as represented by the …, priority 2018, dated 2022).

What was measured:
tobacco seedlings = test: Polar auxin transport interference test (NPA in plant culture medium with MVOCs); format: in vivo, Nicotiana tabacum; details: 10 μM NPA, 20 days
Procedure: In vitro containment conditions for fungal cultures were modified to utilize culture tube closure or cap (3×4 cm, diameter×length, closure for 25 mm culture tubes, Sigma C5791) in order to mitigate problems related to condensation build-up inside the filter-sealed microcentrifuge tubes that could suffocate growing fungus and reduce MVOC emission, as subsequently noticed. For each sterile closure cap, 5 ml semi-solid MS medium was added and 10 μl of conidial suspension at a density of 1×10^5 CFU per ml was subsequently introduced. The fungal culture in the closure was then placed in a Magenta™ GA7 vessel that contains tobacco seedlings. For controls, a blank culture cap was added. All experiments were repeated three times. Each involved three treated and untreated vessels, respectively, and three replicate plants for each vessel. Cultures were placed under light conditions with a 16-h photoperiod at 25° C. Plants were treated with 10 or 20 d of fungal exposure duration. Regardless of exposure duration used, plant growth was monitored and compared with controls without fungal cultures at the end of 20 d after introduction of fungal cultures. For polar auxin transport interference tests, 10 μM auxin transport inhibitor N-1-naphthylphthalamic acid (NPA) is incorporated in plant culture medium and used to assess plant response in the presence of MVOCs. […]

[1] = NPA as low as 5 μM; cited from earlier work
[2] = tested on: peach rootstock 'Bailey-OP' (Prunus persica); test: Root primordia induction from peach in vitro shoots on mLP with IBA; format: in vivo
Procedure: A two-step process was tested to induce roots from in vitro shoots and establish plants in the greenhouse. In vitro shoots of the peach rootstock ‘Bailey-OP’ (Prunus persica) of longer than 2 cm in height were first transferred to a modified Lepoivre LP medium (mLP) containing basal salts of LP medium (Quorin and Lepoivre, Acta Hort. 78:437-442, 1977) and a vitamin mixture composed of 1.0 mg/L thiamine-HCl, 1.0 mg/L nicotinic acid, 1.0 mg/L pyridoxine-HCl, 4.0 mg/L glycine, 0.2 mg/L biotin and 2.0 mg/L Ca-pathothenate (mLP) supplemented with various concentrations of indole-3-butyric acid (IBA) and cultured for two weeks to induce root primordia. The IBA concentrations ranged from 0.5 to 2.0 mg/L. Shoots with root primordia at the base were then taken out and separated into two groups. The first group was cultured on mLP medium without any growth regulators for continuous plant development as a control, whereas the second group was maintained on a similar growth regulator-free mLP medium but with a culture tube closure containing MVOC-emitting fungus of C. sp isolate TC09 (Accession No. NRRL 67603).

| Structure (SMILES) | effect on root length, number of leaves and largest leaf length of C. sp treated plants (tobacco seedlings) | lateral root formation (tobacco seedlings) | effect on stimulatory effects of Fusarium oxysporum MVOCs on plant biomass increase [1] | root formation efficiency ([2]; 0.5 mg/L IBA) | root formation frequency ([2]; 1.0 mg/L IBA) | root induction efficiency ([2]; 1.5 mg/L IBA) | root induction efficiency ([2]; 2.0 mg/L IBA) |
| --- | --- | --- | --- | --- | --- | --- | --- |
| O=C(O)c1ccccc1C(=O)Nc1cccc2ccccc12 [NPA, N-1-naphthylphthalamic acid] | remained similar | arrested lateral root formation | completely negating |  |  |  |  |
| O=C(O)CCCc1c[nH]c2ccccc12 [IBA, indole-3-butyric acid] |  |  |  | very low root formation efficiency | up to 70% | great reduction in root induction efficiency | less than 20% |
